{
  "source": "paper PMC6411751",
  "about": "“Use of machine learning to identify novel, behaviorally active antagonists of the insect odorant receptor co-receptor (Orco) subunit” (Scientific Reports, 2019)",
  "key": {"Agam\\Orco": {"target": "T1, Agam\\Orco (Anopheles gambiae, UniProt Q7QCC7)", "T1 construct": "expressed in transfected cells; host or cells: Xenopus laevis oocytes injected with capped cRNA (plasmid pT7TS, gift of L. Zwiebel)", "T1 sequence (Q7QCC7 1-478)": "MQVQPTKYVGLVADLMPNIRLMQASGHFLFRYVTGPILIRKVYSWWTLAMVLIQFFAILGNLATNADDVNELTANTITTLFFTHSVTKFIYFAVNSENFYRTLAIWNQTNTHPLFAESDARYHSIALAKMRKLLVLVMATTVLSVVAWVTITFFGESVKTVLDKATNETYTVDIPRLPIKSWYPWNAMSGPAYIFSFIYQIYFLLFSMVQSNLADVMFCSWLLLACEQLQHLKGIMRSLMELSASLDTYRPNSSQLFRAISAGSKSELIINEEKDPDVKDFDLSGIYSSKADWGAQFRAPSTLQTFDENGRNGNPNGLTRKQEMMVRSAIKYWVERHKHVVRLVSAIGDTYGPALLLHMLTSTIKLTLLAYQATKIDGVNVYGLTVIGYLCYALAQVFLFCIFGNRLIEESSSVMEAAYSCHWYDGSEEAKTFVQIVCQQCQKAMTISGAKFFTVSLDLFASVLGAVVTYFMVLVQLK", "assay": "cell-based", "assay_type": "cell-based", "procedure": "A 2 hr incubation with collagenase B (Roche) was used to remove follicle cells from oocytes. Capped cRNA for Agam\\Orco was synthesized using mMessage mMachine kits (Thermo Fisher Scientific). 25 ng of cRNA was injected into stage V–VI oocytes, followed by a 2–5 day incubation at 18 °C in Barth’s saline (in mM: 88 NaCl, 1 KCl, 2.4 NaHCO3, 0.3 CaNO3, 0.41 CaCl2, 0.82 MgSO4, 15 HEPES, pH 7.4, and 0.05 g/L tetracycline, 0.05 g/L ciprofloxacin, 0.1 g/L amikacin) prior to electrophysiological recordings.\nAn automated parallel electrophysiology system (OpusExpress 6000 A, Molecular Devices) was used to record Orco agonist (OLC12) or odorant induced currents under two-electrode voltage clamp. Oocytes were perfused with ND96 (in mM: 96 NaCl, 2 KCl, 1 CaCl2, 1 MgCl2, 5 HEPES, pH 7.4). DMSO was used to prepare 1 M or 100 mM stock solutions of test compounds, which were then diluted in ND96 on the day of the experiment. Compounds were applied at a flow rate of 1.0 mL/min, with extensive washing in ND96 at 4.6 mL/min between applications. Micropipettes with resistances of 0.2–2.0 MΩ were filled with 3 M KCl. The holding potential was −70 mV. Current responses were filtered (4-pole, Bessel, low pass) at 20 Hz (−3 db) and sampled at 100 Hz. OpusXpress 1.1 software (Molecular Devices) was used to capture and store current responses.\nTo measure antagonist activity at Orco, Agam\\Orco was activated by the Orco agonist OLC12[34]. […] The current response to OLC12 in the presence of antagonist candidate was compared to the mean of the preceding two responses to OLC12 alone and presented as a percentage[34],[35]. This value was then normalized to the value obtained when the assay was run in the absence of antagonist candidate (sham).\nDuring development of the training panel (Fig. 2, Tables S1 and S2), all compounds not previously known to be Orco antagonists were tested at a concentration of 3 mM. […] Concentration-inhibition curves were constructed for all compounds eliciting >20 percent inhibition at 3 mM. The same concentration and criteria were used during screening of predicted actives (Fig. 4D) and predicted inactives (Fig. 5C).\nClampfit 9.1 software (Molecular Devices) was used to perform initial analysis of electrophysiological data. Prism 7 (Graphpad) was used for curve fitting. Concentration-inhibition data were fit to the equation: I = Imax/(1 + (X/IC50)^n) where I represents the current response at a given concentration of inhibitor, X; Imax is the maximal response in the absence of inhibitor; IC50 is the concentration of inhibitor present that allows a half maximal response from OLC12; n is the apparent Hill coefficient."}, "oocyte": {"system": "oocyte", "assay": "Oocyte toxicity seen during Orco antagonist screening", "conditions": "at concentrations higher than 300 µM", "from_the_text": "Figure 4 (A) Scatter plot of predictions (Bayesian scores) from model A and model B for the 138 highest probability predicted actives. […] (B) Cluster membership of the 138 most likely predicted actives and distribution of experimentally tested compounds. […] (D) Antagonist activity of 39 predicted Orco antagonists, as well as the activity of 16 known Orco antagonists (denoted by a dot (•) preceding the compound name). […] Data are presented as mean ± SEM (n = 3–10)."}, "[1]": {"system": "Orco subunit of the Hessian fly (Mayetiola destructor)", "conditions": "cited from earlier work"}, "Dmel\\Or85b": {"system": "Dmel\\Or85b", "design": "method as in ref 1 Münch, D., Galizia, C.G. DoOR 2.0 (2016)", "conditions": "ref 1 Münch, D., Galizia, C.G. DoOR 2.0 (2016); cited from earlier work"}, "Dmel\\Or67a": {"system": "Dmel\\Or67a", "design": "method as in ref 1 Münch, D., Galizia, C.G. DoOR 2.0 (2016)", "conditions": "ref 1 Münch, D., Galizia, C.G. DoOR 2.0 (2016); cited from earlier work"}, "Dmel\\Or13a": {"system": "Dmel\\Or13a", "design": "method as in ref 1 Münch, D., Galizia, C.G. DoOR 2.0 (2016)", "conditions": "ref 1 Münch, D., Galizia, C.G. DoOR 2.0 (2016); cited from earlier work"}, "OR expressing neurons": {"system": "OR expressing neurons", "design": "method as in PMID 22272331", "conditions": "directly injected into sensilla at ≥100 µM; cited from earlier work"}},
  "data": [
    {"smiles": "Cc1ccc(C(C)C)cc1O", "note": "[carvacrol]", "values": [
      {"measurement": "decrease in potency relative to 3I6MC", "setting": "Agam\\Orco; Agam\\Orco IC50 compared with 3I6MC", "result": 3.6, "unit": "fold"},
      {"measurement": "IC50", "setting": "Agam\\Orco; Table S1, training actives, Agam\\Orco activated by 30 µM OLC12, mean ± SEM (n = 3-8), read-out: IC50", "result": "146 ± 21", "unit": "µM"},
      {"measurement": "oocyte toxicity", "setting": "oocyte", "result": "oocyte toxicity at higher concentrations"}
    ]},
    {"smiles": "CCc1ccc(NC(=O)CSc2nnc(-c3cccnc3)n2CC)cc1", "note": "[VUAA1, N-(4-ethylphenyl)-2-((4-ethyl-5-(3-pyridinyl)-4H-1,2,4-triazol-3-yl)thio)acetamide]", "values": [
      {"measurement": "sensitivity of Orco subunit to the agonist", "setting": "[1]", "result": "insensitive"}
    ]},
    {"smiles": "C=CC(C)(O)CCC=C(C)C", "note": "(centres unmarked) [linalool]", "values": [
      {"measurement": "scaled response from DoOR (max = 1.0)", "setting": "Dmel\\Or85b", "result": 0.163},
      {"measurement": "scaled response from DoOR (max = 1.0)", "setting": "Dmel\\Or67a", "result": 0.158},
      {"measurement": "scaled response from DoOR (max = 1.0)", "setting": "Dmel\\Or13a", "result": 0.164}
    ]},
    {"smiles": "CCn1c(SCC(=O)N2c3ccccc3Sc3ccccc32)nnc1-c1ccco1", "note": "[VU0183254]", "values": [
      {"measurement": "spontaneous firing rate of OR expressing neurons", "setting": "OR expressing neurons", "result": "reduce the spontaneous firing rate"}
    ]}
  ]
}
